Here are results for 32 compounds from patent US8299065B2, “Antibacterial condensed thiazoles” (Biota Europe Ltd., priority 2007, dated 2012).

SMILES strings stand for the structures. Values after ≈ are worked out from the molar mass of the structure shown.

This assay concerns Enterococcus faecalis ATCC 29212. Nature of the assay: MIC testing against Enterococcus faecalis ATCC 29212. Type of assay: cell-based. The conditions noted are these: ATCC29212, read-out: MICs against Enterococcus faecalis, Activity. How it is done:
Minimum Inhibitory Concentration (MIC) Testing Compounds of this invention were tested for antimicrobial activity by susceptibility testing in liquid or on solid media. MICs for compounds against each strain were determined by the broth microdilution or agar dilution method according to the guidelines of the Clinical Laboratories and Standards Institute, formerly the National Committee for Clinical Laboratory Standards (Clinical Laboratories and Standards Institute. Methods for Dilution Antimicrobial Susceptibility Tests for Bacteria That Grow Aerobically; Approved Standard—Seventh Edition. Document M7-A7. CLSI, Wayne, Pa., 2006; Clinical Laboratories and Standards Institute. Methods for Antimicrobial Susceptibility Testing of Anaerobic Bacteria; Approved Standard—Sixth Edition. Document M11-A6. CLSI, Wayne, Pa., 2004).
With `CCNC(=O)Nc1nc2cc(-c3cccnc3)ccc2s1` [Example 1, 1-Ethyl-3-(5-pyridin-3-yl-benzothiazol-2-yl)-urea], the MIC was 0.25 to 1 µg/mL (≈ 0.838 to 3.35 µM). The figure for `CCNC(=O)Nc1nc2cc(-c3ccc(CC(=O)NC)nc3)ccc2s1` [Example 2, 2-{5-[2-(3-Ethyl-ureido)-benzothiazol-5-yl]-pyridin-2-yl}-N-methyl-acetamide] is 2 to 16 µg/mL (≈ 5.41 to 43.3 µM).

Consider `CCNC(=O)Nc1nc2cc(-c3ccc4nncn4c3)ccc2s1` [Example 5, 1-(5-([1,2,4]triazolo[4,3-a]pyridin-6-yl)benzo[d]thiazol-2-yl)-3-ethylurea], for which the MIC lay within 2 to 16 µg/mL (≈ 5.91 to 47.3 µM). For the compound `CCNC(=O)Nc1nc2cc(-c3ccc4nccn4c3)ccc2s1` [Example 6, 1-ethyl-3-(5-(imidazo[1,2-a]pyridin-6-yl)benzo[d]thiazol-2-yl)urea], the MIC lay within 2 to 16 µg/mL (≈ 5.93 to 47.4 µM). As for `CCNC(=O)Nc1nc2cc(-c3ccc4nnnn4c3)ccc2s1` [Example 7, 1-ethyl-3-(5-(tetrazolo[1,5-a]pyridin-6-yl)benzo[d]thiazol-2-yl)urea], the figure is 2 to 16 µg/mL (≈ 5.89 to 47.1 µM); as for `CCNC(=O)Nc1nc2cc(-c3cnc4c(c3)OCCN4)ccc2s1` [Example 8, 1-(5-(3,4-dihydro-2H-pyrido[3,2-b][1,4]oxazin-7-yl)benzo[d]thiazol-2-yl)-3-ethylurea], 2 to 16 µg/mL (≈ 5.63 to 45 µM). As for `CCNC(=O)Nc1nc2cc(-c3ccc(CO)nc3)ccc2s1` [Example 9, 1-ethyl-3-(5-(6-(hydroxymethyl)pyridin-3-yl)benzo[d]thiazol-2-yl)urea], the figure is 2 to 16 µg/mL (≈ 6.09 to 48.7 µM); as for `CCNC(=O)Nc1nc2cc(-c3cnc(-n4ccccc4=O)cn3)ccc2s1` [Example 10, 1-ethyl-3-(5-(5-(2-oxopyridin-1(2H)-yl)pyrazin-2-yl)benzo[d]thiazol-2-yl)urea], 2 to 16 µg/mL (≈ 5.1 to 40.8 µM). As for `CCNC(=O)Nc1nc2cc(-c3cnc(CO)n3C)ccc2s1` [Example 11, 1-ethyl-3-(5-(2-(hydroxymethyl)-1-methyl-1H-imidazol-5-yl)benzo[d]thiazol-2-yl)urea], the figure is 2 to 16 µg/mL (≈ 6.03 to 48.3 µM); as for `CCNC(=O)Nc1nc2cc(-c3ccc(=O)n(CC(=O)OCC)c3)ccc2s1` [Example 12, ethyl 2-(5-(2-(3-ethylureido)benzo[d]thiazol-5-yl)-2-oxopyridin-1(2H)-yl)acetate], 2 to 16 µg/mL (≈ 4.99 to 40 µM). Regarding `CCNC(=O)Nc1nc2cc(-c3ccc(=O)n(CCOCC)c3)ccc2s1` [Example 13, 1-(5-(1-(2-ethoxyethyl)-6-oxo-1,6-dihydropyridin-3-yl)benzo[d]thiazol-2-yl)-3-ethylurea], the MIC was in the range of 2 to 16 µg/mL (≈ 5.17 to 41.4 µM). Regarding `CCNC(=O)Nc1nc2cc(-c3cc(C)oc(=O)c3)ccc2s1` [Example 14, 1-ethyl-3-(5-(6-methyl-2-oxo-2H-pyran-4-yl)benzo[d]thiazol-2-yl)urea], the MIC was 2 to 16 µg/mL (≈ 6.07 to 48.6 µM). As to `CCNC(=O)Nc1nc2cc(-c3ccc(C(=O)OC)nc3)ccc2s1` [Example 15, methyl 5-(2-(3-ethylureido)benzo[d]thiazol-5-yl)picolinate], the MIC fell in the range of 2 to 16 µg/mL (≈ 5.61 to 44.9 µM).

In the case of `CCNC(=O)Nc1nc2cc(-c3cnn(CCN4CCOCC4)c3)ccc2s1` [Example 16, 1-ethyl-3-(5-(1-(2-morpholinoethyl)-1H-pyrazol-4-yl)benzo[d]thiazol-2-yl)urea], the MIC is 2 to 16 µg/mL (≈ 4.99 to 39.9 µM). In the case of `CCNC(=O)Nc1nc2cc(-c3cc[nH]n3)ccc2s1` [Example 17, 1-(5-(1H-pyrazol-3-yl)benzo[d]thiazol-2-yl)-3-ethylurea], the MIC fell in the range of 2 to 16 µg/mL (≈ 6.96 to 55.7 µM). The figure for `CCNC(=O)Nc1nc2cc(-c3cnn(C)c3)ccc2s1` [Example 18, 1-ethyl-3-(5-(1-methyl-1H-pyrazol-4-yl)benzo[d]thiazol-2-yl)urea] is 2 to 16 µg/mL (≈ 6.64 to 53.1 µM); for `CCNC(=O)Nc1nc2cc(-c3cnc4c(c3)OCCN4C)ccc2s1` [Example 19, 1-ethyl-3-(5-(4-methyl-3,4-dihydro-2H-pyrido[3,2-b][1,4]oxazin-7-yl)benzo[d]thiazol-2-yl)urea] it is 0.25 to 1 µg/mL (≈ 0.677 to 2.71 µM); for `CCNC(=O)Nc1nc2cc(-c3cncc4ccccc34)ccc2s1` [Example 20, 1-ethyl-3-(5-(isoquinolin-4-yl)benzo[d]thiazol-2-yl)urea] it is 0.25 to 1 µg/mL (≈ 0.718 to 2.87 µM). As for `CCNC(=O)Nc1nc2cc(-c3cn[nH]c3)ccc2s1` [Example 21, 1-(5-(1H-pyrazol-4-yl)benzo[d]thiazol-2-yl)-3-ethylurea], the figure is 2 to 16 µg/mL (≈ 6.96 to 55.7 µM); as for `CCNC(=O)Nc1nc2cc(-c3cnc(OC)s3)ccc2s1` [Example 22, 1-ethyl-3-(5-(2-methoxythiazol-5-yl)benzo[d]thiazol-2-yl)urea], 2 to 16 µg/mL (≈ 5.98 to 47.8 µM). For the compound `CCNC(=O)Nc1nc2cc(-c3cnc(O)s3)ccc2s1` [Example 23, 1-ethyl-3-(5-(2-hydroxythiazol-5-yl)benzo[d]thiazol-2-yl)urea], the MIC was in the range of 2 to 16 µg/mL (≈ 6.24 to 49.9 µM). On to `CCNC(=O)Nc1nc2cc(-c3cnc4ccccn34)ccc2s1` [Example 24, 1-ethyl-3-(5-(imidazo[1,2-a]pyridin-3-yl)benzo[d]thiazol-2-yl)urea], for which the MIC was in the range of 2 to 16 µg/mL (≈ 5.93 to 47.4 µM). The figure for `CCNC(=O)Nc1nc2cc(-c3ccc4ncnn4c3)ccc2s1` [Example 25, 1-(5-([1,2,4]triazolo[1,5-a]pyridin-6-yl)benzo[d]thiazol-2-yl)-3-ethylurea] is 0.25 to 1 µg/mL (≈ 0.739 to 2.96 µM). Turning to `CCNC(=O)Nc1nc2cc(-c3ccc(NC(C)=O)nc3)ccc2s1` [Example 26, N-(5-(2-(3-ethylureido)benzo[d]thiazol-5-yl)pyridin-2-yl)acetamide], the MIC fell in the range of 2 to 16 µg/mL (≈ 5.63 to 45 µM). The figure for `CCNC(=O)Nc1nc2cc(-c3ccc(N4CCOCC4)nc3)ccc2s1` [Example 27, 1-ethyl-3-(5-(6-morpholinopyridin-3-yl)benzo[d]thiazol-2-yl)urea] is 2 to 16 µg/mL (≈ 5.22 to 41.7 µM). As for `CCNC(=O)Nc1nc2cc(-c3cnc(-n4ccnc4)nc3)ccc2s1` [Example 28, 1-(5-(2-(1H-imidazol-1-yl)pyrimidin-5-yl)benzo[d]thiazol-2-yl)-3-ethylurea], the figure is 2 to 16 µg/mL (≈ 5.47 to 43.8 µM); as for `CCNC(=O)Nc1nc2cc(-c3cc[nH]c(=O)c3)ccc2s1` [Example 29, 1-ethyl-3-(5-(2-oxo-1,2-dihydropyridin-4-yl)benzo[d]thiazol-2-yl)urea], 2 to 16 µg/mL (≈ 6.36 to 50.9 µM). As for `CCNC(=O)Nc1nc2cc(-c3ccc(-c4nnn(C)n4)nc3)ccc2s1` [Example 30, 1-ethyl-3-(5-(6-(2-methyl-2H-tetrazol-5-yl)pyridin-3-yl)benzo[d]thiazol-2-yl)urea], the figure is 0.25 to 1 µg/mL (≈ 0.657 to 2.63 µM); as for `CCNC(=O)Nc1nc2cc(-c3cc(C)n(CCOC)c(=O)c3)ccc2s1` [Example 31, 1-ethyl-3-(5-(1-(2-methoxyethyl)-6-methyl-2-oxo-1,2-dihydropyridin-4-yl)benzo[d]thiazol-2-yl)urea], 0.25 to 1 µg/mL (≈ 0.647 to 2.59 µM); as for `CCNC(=O)Nc1nc2cc(-c3cc(C)n(CCO)c(=O)c3)ccc2s1` [Example 32, 1-ethyl-3-(5-(1-(2-hydroxyethyl)-6-methyl-2-oxo-1,2-dihydropyridin-4-yl)benzo[d]thiazol-2-yl)urea], 2 to 16 µg/mL (≈ 5.37 to 43 µM).

Consider `CCNC(=O)Nc1nc2cc(-c3cc(C)n(Cc4cccc(C)n4)c(=O)c3)ccc2s1` [Example 33, 1-ethyl-3-(5-(6-methyl-1-((6-methylpyridin-2-yl)methyl)-2-oxo-1,2-dihydropyridin-4-yl)benzo[d]thiazol-2-yl)urea], for which the MIC is 0.25 to 1 µg/mL (≈ 0.577 to 2.31 µM). The figure for `CCNC(=O)Nc1nc2cc(-c3cc(C)n(Cc4cccnc4)c(=O)c3)ccc2s1` [Example 34, 1-ethyl-3-(5-(6-methyl-2-oxo-1-(pyridin-3-ylmethyl)-1,2-dihydropyridin-4-yl)benzo[d]thiazol-2-yl)urea] is 0.25 to 1 µg/mL (≈ 0.596 to 2.38 µM).
